# Where “and” joins values, the source holds several entries; their conditions need not be identical. Identical values can stand only once.
# System: eyes of patients with presbyopia
# Test: Clinical trial: near vision on Rosenbaum chart with Jaeger notation
# Format: in vivo, human
# Details: one hour after instillation; for JAEGER- 2 (Jaeger scale, near vision): one drop, synergistic mixture in non-dominant eye, pilocarpine or brimonidine dilution in dominant eye, 11 patients, baseline 5.82; for WINNED LINES (lines gained in the reading primer with Jaeger's notation): synergistic combination in non-dominant eye, comparators in dominant eye
# Description: A composition was prepared where patients with presbyopia symptoms were selected. This study was approved by the ethics committee of Optall Vision Eye Center in Mexico City. All patients signed and gave their consent to participate in such study.
# For the study, patients with presbyopia, with a corrected visual acuity of 20/25 or better, were included. The diagnosis of presbyopia was determined without correcting near vision acuity was equal to or less than 3 on the Jaeger scale on the Rosenbaum chart improving at least 2 on the Jaeger scale with the use of at least +1.00 D. Age, gender, ocular dominance, uncorrected visual acuity (UCVA), corrected near visual acuity (BNCVA) intraocular pressure with Goldmann applanation tonometer (IOP), pupil diameter under photopic and scotopic conditions (PD), slit lamp biomicroscopic examination and a fundus examination were recorded.
# The ophthalmic composition comprised a single low concentration dose of pilocarpine, brimonidine, oxymetazoline/sodium hyaluronate, bromfenac and/or at least one vasoconstrictor and at least one pharmaceutically acceptable vehicle. From said combination, one drop of the synergistic mixture was applied and instilled in the nondominant eye and one drop of pilocarpine or brimonidine dilution was alternately instilled in the dominant eye of consecutive patients. After one hour, uncorrected visual acuity (UCVA), corrected visual acuity (BCVA), uncorrected near visual acuity (UNVA), corrected near visual acuity (BCNVA), intraocular pressure (IOP), pupil diameter (PD), visual analog pain scale (VAS) was measured from 0 to 10. Hyperemia was measured from 1 to 4.
# Statistical analyses were performed with SPSS using Pearson's and Spearman's correlation analysis.
# The type of modern Jaeger eye chart scale used generally ranges from J10 (approximately 14 points for Times New Roman typeface) to J1 (approximately 3 points, Times New Roman typeface). The chart moves back and forth until you can read a certain font size.
Compound,"JAEGER- 2 (Jaeger scale, near vision)",WINNED LINES (lines gained in the reading primer with Jaeger's notation),WINNED LINES (lines gained in the reading primer with Jaeger's notation) (listed as brimonidine),"JAEGER- 2 (Jaeger scale, near vision) (listed as pilocarpine)",WINNED LINES (lines gained in the reading primer with Jaeger's notation) (listed as pilocarpine)
"Brc1c(NC2=NCCN2)ccc2nccnc12 [Brimonidine, brimonidine]",3.50±−1.761 and 3.5,2.33,2.33±−2.50,–,–
"CC[C@@H]1C(=O)OC[C@@H]1Cc1cncn1C [Pilocarpine, pilocarpine]",4.2,1.6,–,4.20±−1.483,1.60±−089
